Changes are numbered by the printed parent chain. Activity calls are given as the source filed them. No cut-off for these calls is given here.
Experiments:
[1] = target: T1, Transient receptor potential cation channel subfamily V member 3 (Homo sapiens) (UniProt Q8NET8); experiment: Activation of TRPV3 in HEK cells assessed as increase in Ca2+ level from extracellular space at 10 uM; type: cell-based; settings: HEK293
T1 sequence (whole entry): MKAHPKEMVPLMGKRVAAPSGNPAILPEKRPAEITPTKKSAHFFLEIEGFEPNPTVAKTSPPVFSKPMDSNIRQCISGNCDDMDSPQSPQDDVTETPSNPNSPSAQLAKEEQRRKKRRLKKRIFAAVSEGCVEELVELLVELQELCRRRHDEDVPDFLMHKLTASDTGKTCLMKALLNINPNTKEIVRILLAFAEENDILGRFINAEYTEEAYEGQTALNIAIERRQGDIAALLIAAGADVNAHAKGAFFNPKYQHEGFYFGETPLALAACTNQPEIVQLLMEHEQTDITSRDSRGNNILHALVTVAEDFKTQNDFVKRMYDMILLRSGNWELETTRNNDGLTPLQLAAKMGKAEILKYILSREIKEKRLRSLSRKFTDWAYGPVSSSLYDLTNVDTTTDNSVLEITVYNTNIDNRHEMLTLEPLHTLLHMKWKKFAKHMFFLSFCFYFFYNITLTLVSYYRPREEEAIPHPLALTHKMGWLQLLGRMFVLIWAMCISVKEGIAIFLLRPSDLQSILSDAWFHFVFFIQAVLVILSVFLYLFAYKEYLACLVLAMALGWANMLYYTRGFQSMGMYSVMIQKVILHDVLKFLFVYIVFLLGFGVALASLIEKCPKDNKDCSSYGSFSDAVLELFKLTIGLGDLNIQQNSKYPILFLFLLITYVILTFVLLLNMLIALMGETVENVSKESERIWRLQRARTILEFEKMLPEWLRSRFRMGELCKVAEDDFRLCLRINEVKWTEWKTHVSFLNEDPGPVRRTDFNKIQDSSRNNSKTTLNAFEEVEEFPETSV

[2] = target: T1, Transient receptor potential cation channel subfamily V member 3 (Homo sapiens); experiment: Activation of TRPV3 in HEK cells assessed as increase in Ca2+ level from extracellular space at 300 uM; type: cell-based; settings: HEK293
[3] = target: T2, Short transient receptor potential channel 5 (Homo sapiens) (UniProt Q9UL62); experiment: Activation of TRPC5 expressed in BAEC expressing dominant negative mutant of TRPC5 assessed as increase in Ca2+ level from extracellular space at 300 uM
T2 sequence (whole entry): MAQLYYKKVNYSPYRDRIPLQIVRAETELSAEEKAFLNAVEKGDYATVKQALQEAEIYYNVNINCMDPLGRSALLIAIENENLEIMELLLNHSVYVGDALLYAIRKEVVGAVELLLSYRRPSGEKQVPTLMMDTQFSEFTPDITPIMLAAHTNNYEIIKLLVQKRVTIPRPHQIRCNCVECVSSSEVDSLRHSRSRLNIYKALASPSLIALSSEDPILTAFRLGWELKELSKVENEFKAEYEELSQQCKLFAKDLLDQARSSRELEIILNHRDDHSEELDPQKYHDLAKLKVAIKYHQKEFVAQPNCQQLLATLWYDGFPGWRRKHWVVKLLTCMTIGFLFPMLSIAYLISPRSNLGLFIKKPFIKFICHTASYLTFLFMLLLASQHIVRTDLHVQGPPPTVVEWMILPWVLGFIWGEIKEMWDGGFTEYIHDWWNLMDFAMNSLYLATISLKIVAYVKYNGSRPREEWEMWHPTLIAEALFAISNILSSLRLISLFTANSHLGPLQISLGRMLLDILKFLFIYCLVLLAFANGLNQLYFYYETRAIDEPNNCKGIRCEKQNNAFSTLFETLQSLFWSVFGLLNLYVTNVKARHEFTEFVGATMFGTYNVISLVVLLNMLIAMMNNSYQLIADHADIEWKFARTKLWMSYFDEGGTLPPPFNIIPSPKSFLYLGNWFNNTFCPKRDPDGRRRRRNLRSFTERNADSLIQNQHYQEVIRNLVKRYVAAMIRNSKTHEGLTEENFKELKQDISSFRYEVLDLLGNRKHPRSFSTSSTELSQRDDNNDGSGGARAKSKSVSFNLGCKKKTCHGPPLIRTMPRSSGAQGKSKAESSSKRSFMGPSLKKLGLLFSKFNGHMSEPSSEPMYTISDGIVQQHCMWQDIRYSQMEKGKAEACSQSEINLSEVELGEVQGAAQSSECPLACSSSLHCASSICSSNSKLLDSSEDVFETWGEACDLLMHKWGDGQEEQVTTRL

[4] = target: T2, Short transient receptor potential channel 5 (Homo sapiens); experiment: Induction of S-nitrosylation of TRPC5 in HEK cells assessed as increase in Ca2+ level from extracellular space at 300 uM; type: cell-based; settings: HEK293
[5] = system: T3, Short transient receptor potential channel 5 (Homo sapiens), Q9UL62 [C558S]; experiment: Decrease in TRPC5 C558S mutant S-nitrosylation in HEK cells assessed as inhibition of incorporation of DTNB-2Bio at 300 uM relative to control; type: cell-based; settings: HEK293
T3 sequence (whole entry): T2 sequence (whole entry) with C558S

HEK293 = experiment: Activation of rat TRPV1 Cys616 mutant expressed in HEK cells assessed as increase in Ca2+ level from extracellular space at 0.1 to 1 mM; type: cell-based

Activity [1] | Activity [2] | Activity [3] | Activity [4] | Activity [5] | SMILES | Activity (HEK293)
Active | – | – | – | – | O=[N+]([O-])c1ccc(SSc2ccc([N+](=O)[O-])cn2)nc1 | –
– | Active | inactive | Active | Active | CC(=O)N[C@@H](C(=O)O)C(C)(C)SN=O (racemic) | inactive
